Patent US20250387329A1 (priority 2022, published 2025)
≈ marks a conversion by molar mass, not a printed value.

Assays:
[1] = Solubility study with buffer (pH dependent solubility testing); details: thermodynamic from solid
Description: Solubility Study with Buffer (pH Dependent Solubility Testing)
A phase solubility study was performed for different buffers to analyse the effect of pH on the solubility of Orellanine. Four buffers were tested: • Acetate buffer pH 4.5 at 50 mM-prepared from 1.81 g sodium acetate and 14 ml of acetic acid (2N), adjusted up to 11 with water for injection (WFI). • Phosphate buffer pH 5.8 at 50 mM-prepared from 92 ml of NaH2PO4 and 8 ml of Na2HPO4, adjusted to 200 ml with WFI. • Phosphate buffer pH 6.8 at 50 mM-prepared from 51 ml of NaH2PO4 and 49 ml of Na2HPO4, adjusted to 200 ml with WFI. • Phosphate buffer pH 7.4 at 50 mM-prepared from 19 ml of NaH2PO4 and 81 ml of Na2HPO4, adjusted to 200 ml with WFI.
(§1) The pH of each buffer was adjusted with a pH meter and sodium hydroxide or hydrochloric acid at 0.2M.
Each suspension was centrifuged at 5300 rpm for 15 minutes. The supernatant was filtered with a 0.45 μm nylon filter.

[2] = Solubility study with different buffer concentrations at pH 7.4; details: phosphate buffer, pH 7.4, aqueous buffer, thermodynamic from solid; for solubility thermodynamic at 24 h: Concentration of Orellanine, pH adjusted to 7.4 after 3 hours, stirred 24 hours at room temperature
Description: Solubility Study with Different Buffer Concentrations at pH 7.4
The impact of buffer concentration was assessed. Three buffers were used: • Phosphate buffer pH 7.4 at 25 mM-prepared from 0.95 ml of NaH2PO4 (0.1M) and 4.05 ml of Na2HPO4 (0.1M), adjusted to 20 ml with WFI. • Phosphate buffer pH 7.4 at 50 mM-prepared from 19 ml of NaH2PO4 (0.1M) and 81 ml of Na2HPO4 (0.1M), adjusted to 200 ml with WFI. • Phosphate buffer pH 7.4 at 100 mM-prepared from 38 ml NaH2PO4 (0.1M) and 162 ml of Na2HPO4 (0.1M), adjusted to 200 ml with WFI.
as §1
(§2) The suspension was then stirred at 400 rpm for 24 hours at room temperature. Each suspension was filtered through a 0.2 μm PVDF syringe filter.

[3] = Solubility study with different buffer salts at pH 7.4; details: for solubility thermodynamic at 24 h: pH 7.4, aqueous buffer, thermodynamic from solid
Description: Solubility Study with Different Buffer Salts at pH 7.4
Four buffers at pH 7.4 and 50 mM were assessed: • Phosphate buffer pH 7.4 at 50 mM-prepared from 19 ml of NaH2PO4 (0.1M) and 81 ml of Na2HPO4 (0.1M), adjusted to 200 ml with WFI. • Phosphate buffer pH 7.4 at 50 mM-prepared from 28.1 ml of KH2PO4 (0.2M) and 21.9 ml of NaOH (0.2M) adjusted to 200 ml with WFI. • Tris-HCl buffer pH 7.4 at 50 mM-prepared from 54.7 ml of tris(hydroxymethyl)aminomethane (0.1M) and 45.3 ml of hydrochloric acid (0.1M), adjusted to 200 ml with WFI. • Citrate phosphate buffer pH 7.4 at 50 mM-prepared from 2.4 ml of citric acid monohydrate (0.2M) and 47.6 ml of Na2HPO4 (0.2M), adjusted to 200 ml with WFI.
as §1, §2

[4] = Solubility study with different ionic strengths at pH 7.4; details: phosphate buffer with sodium chloride, pH 7.4, aqueous buffer, thermodynamic from solid, Concentration of Orellanine, stirred 24 hours at room temperature
Description: Solubility Study with Different Ionic Strengths at pH 7.4
The ionic strength of the NaH2PO4—Na2HPO4 buffer was adjusted by adding sodium chloride. The ionic strength of the NaH2PO4—Na2HPO4 buffer at 50 mM was estimated at around 130 mM. The proportion of sodium chloride in added to the buffers was 0.41%, 0.98%, and 2.15%.
as §2

[5] = Formulation adjustment: solubility in selected buffers plus 0.70% NaCl, pH adjusted twice; details: pH 7.4, aqueous buffer, thermodynamic from solid
Description: Two buffers were selected: NaH2PO4—Na2HPO4 pH 7.4 and Citrate-Na2HPO4 PH 7.4 at 50 mM, each with addition of 0.70% sodium chloride. Adding 0.70% sodium chloride provides a solution close to isotonicity.
Formulations were prepared by weighing 40 mg of Orellanine into a 5 ml vial, adding 2 ml of buffer, stirring the suspension for 1 hour, adjusting the pH to 7.4 with sodium hydroxide (0.2M), stirring the suspension at 400 rpm for 24 hours at room temperature, and adjusting the pH to 7.4 with sodium hydroxide (0.2M). Each suspension was filtered through a 0.2 μm PVDF syringe filter.

human renal cancer cells = details: cells derived from a primary tumor or from metastatic tumor tissue; disclosed in WO 2010/040750; cited from earlier work

## [O-][n+]1ccc(O)c(O)c1-c1c(O)c(O)cc[n+]1[O-] [Orellanine]
[1]; acetate buffer, pH 4.5, aqueous buffer
  solubility thermodynamic at 24 h: 2.4 µg/mL (≈ 0.00952 mM)
[1]; phosphate buffer, pH 5.8, aqueous buffer
  solubility thermodynamic at 24 h: 29.9 µg/mL (≈ 0.119 mM)
[1]; phosphate buffer, pH 6.8, aqueous buffer
  solubility thermodynamic at 24 h: 622 µg/mL (≈ 2.47 mM)
[1]; phosphate buffer, pH 7.4, aqueous buffer
  solubility thermodynamic at 24 h: 1720 µg/mL (≈ 6.8 mM)
[2]
  solubility at 24 h: 3700 to 4900 µg/mL (≈ 14.7 to 19.4 mM)
[2]; NaH2PO4—Na2HPO4 pH 7.4 25 mM, final pH 7.29, 92 mOsm
  solubility thermodynamic at 24 h: 3680 µg/mL (≈ 14.6 mM)
[2]; NaH2PO4—Na2HPO4 pH 7.4 50 mM, final pH 7.33, 150 mOsm
  solubility thermodynamic at 24 h: 4880 µg/mL (≈ 19.4 mM)
[2]; NaH2PO4—Na2HPO4 pH 7.4 100 mM, final pH 7.30, 242 mOsm
  solubility thermodynamic at 24 h: 4910 µg/mL (≈ 19.5 mM)
[3]; NaH2PO4—Na2HPO4 pH 7.4, 50 mM, stirred 24 hours at room temperature, final pH 7.33, 150 mOsm
  Concentration of Orellanine: 4880 µg/mL
[3]; Tris-HCl buffer
  solubility thermodynamic at 24 h: 4590 µg/mL
[3]; citrate phosphate buffer
  solubility thermodynamic at 24 h: 5440 µg/mL
[3]; phosphate buffer
  solubility thermodynamic at 24 h: 4560 µg/mL
[4]; NaH2PO4—Na2HPO4 pH 7.4 at 50 mM plus 0.41% NaCl, final pH 7.26, 205 mOsm
  solubility thermodynamic at 24 h: 5310 µg/mL
[4]; NaH2PO4—Na2HPO4 pH 7.4 at 50 mM plus 0.98% NaCl, final pH 7.19, 328 mOsm
  solubility thermodynamic at 24 h: 5900 µg/mL
[4]; NaH2PO4—Na2HPO4 pH 7.4 at 50 mM plus 2.15% NaCl, final pH 7.30, 595 mOsm
  solubility thermodynamic at 24 h: 6430 µg/mL
[5]; citrate phosphate buffer with sodium chloride
  solubility thermodynamic at 24 h: 10500 µg/mL
[5]
  solubility at 24 h: > 10000 µg/mL
[5]; phosphate buffer with sodium chloride
  solubility thermodynamic at 24 h: 11100 µg/mL
Human renal cancer cells
  Killing of human renal cancer cells: killed them with great efficiency
